Reference: patent US10669235B2, “Indole derivatives and their use as protein kinase inhibitors” (RESPIVERT LIMITED, priority 2016, dated 2020)
Where a name gives a salt, the structure may show the parent alone. Read-outs that look alike come from different tables or passages of the source.

Legend:
[1] = test system: MRC5 cells; test: Cell viability assay in MRC5 cells (MTT)
[2] = biological target: PDGFRβ (Homo sapiens (Human), UniProt P09619); test: PDGF-BB induced phosphorylation of PDGFRβ in fibroblasts (MRC5, HTRF); format: cell-based; details: MRC5 cells, PDGFBB stimulation; read-out: PDGFBB-induced PDGFRβ phosphorylation in MRC5 cells (IC50)
Sequence of PDGFRβ (P09619 33-1106): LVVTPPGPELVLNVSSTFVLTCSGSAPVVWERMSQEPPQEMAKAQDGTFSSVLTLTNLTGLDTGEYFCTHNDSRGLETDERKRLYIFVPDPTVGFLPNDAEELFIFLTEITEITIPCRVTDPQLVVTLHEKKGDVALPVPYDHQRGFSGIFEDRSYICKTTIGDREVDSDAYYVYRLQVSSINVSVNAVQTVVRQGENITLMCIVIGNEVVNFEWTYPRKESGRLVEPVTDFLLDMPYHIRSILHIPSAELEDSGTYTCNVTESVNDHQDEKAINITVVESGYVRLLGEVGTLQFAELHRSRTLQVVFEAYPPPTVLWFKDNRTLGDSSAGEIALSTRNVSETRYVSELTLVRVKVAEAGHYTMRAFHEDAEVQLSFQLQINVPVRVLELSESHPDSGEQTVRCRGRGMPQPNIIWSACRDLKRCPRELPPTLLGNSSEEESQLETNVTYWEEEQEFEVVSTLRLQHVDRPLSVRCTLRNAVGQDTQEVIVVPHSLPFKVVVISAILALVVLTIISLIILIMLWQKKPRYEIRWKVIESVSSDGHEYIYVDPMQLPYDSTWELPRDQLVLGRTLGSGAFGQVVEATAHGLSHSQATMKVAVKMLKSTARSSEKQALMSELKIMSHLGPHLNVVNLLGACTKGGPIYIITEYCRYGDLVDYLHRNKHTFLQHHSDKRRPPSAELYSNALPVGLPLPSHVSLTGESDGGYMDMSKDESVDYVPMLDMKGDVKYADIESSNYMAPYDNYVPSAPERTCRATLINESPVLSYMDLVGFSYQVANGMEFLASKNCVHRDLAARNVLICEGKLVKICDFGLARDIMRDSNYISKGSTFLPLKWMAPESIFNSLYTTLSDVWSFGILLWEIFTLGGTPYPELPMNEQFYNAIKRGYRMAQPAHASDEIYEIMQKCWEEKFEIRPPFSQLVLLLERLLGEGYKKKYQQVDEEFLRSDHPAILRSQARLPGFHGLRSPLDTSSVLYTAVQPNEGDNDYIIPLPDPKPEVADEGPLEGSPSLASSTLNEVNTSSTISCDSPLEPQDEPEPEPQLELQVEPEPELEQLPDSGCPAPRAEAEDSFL

[3] = PAMPA permeability assay; format: in vitro ADME; details: for recovery at 5 hr, 10 μM / Papp at 5 hr, 10 μM: pH 7, PAMPA; for Papp at 5 hr, 10 μM: pH 7, 10 μM
[4] = Pharmacokinetic measurements in rats (i.v., i.t., oral); format: in vivo; details: rat; for concentration at 0.1 h: read-out: lung concentration (nM) at time 0.1 h; for concentration at 1.5 h: read-out: lung concentration (nM) at time 1.5 h; for concentration at 6 h: read-out: lung concentration (nM) at time 6 h; for concentration at 24 h: read-out: lung concentration (nM) at time 24 h
[5] = i.t. dose 0.1 (nintedanib 0.42), 0.1 h
[6] = i.t. dose 0.1 (nintedanib 0.42), 1.5 h
[7] = i.t. dose 0.1 (nintedanib 0.42), 6 h
[8] = i.t. dose 0.1 (nintedanib 0.42), 24 h
[9] = i.v. dose 0.1 (nintedanib 0.42), 0.1 h
[10] = i.v. dose 0.1 (nintedanib 0.42), 1.5 h
[11] = i.v. dose 0.1 (nintedanib 0.42), 6 h
[12] = i.v. dose 0.1 (nintedanib 0.42), 24 h
[13] = male, CD, lung, other: intra-tracheal

COC(=O)c1cc2c(cc1C)/C(=C(/Nc1ccc(S(=O)(=O)NCCN3CCN(C)CC3)cc1)c1ccccc1)C(=O)N2 [Example 1, (Z)-Methyl 5-methyl-3-(((4-(N-(2-(4-methylpiperazin-1-yl)ethyl)sulfamoyl)phenyl)amino)(phenyl)methylene)-2-oxoindoline-6-carboxylate, 0.8 formate]
Cell viability at 100 nM (%) [1]: 103.6% | Cell viability at 300 nM (%) [1]: 89% | Cell viability at 1000 nM (%) [1]: 68.7% | IC50 [2]: 25.6 nM | recovery at 5 hr, 10 μM [3]: 92% | Papp at 5 hr, 10 μM [3]: 0.123 ×10⁻⁶ cm/s

COC(=O)c1cc2c(cc1C)/C(=C(/Nc1ccc(C(=O)NCCN3CCCN(C)CC3)cc1)c1ccccc1)C(=O)N2 [Example 5, (Z)-Methyl 5-methyl-3-(((4-((2-(4-methyl-1,4-diazepan-1-yl)ethyl)carbamoyl)phenyl)amino) (phenyl)methylene)-2-oxoindoline-6-carboxylate, formate]
Cell viability at 100 nM (%) [1]: 91.5% | Cell viability at 300 nM (%) [1]: 81% | Cell viability at 1000 nM (%) [1]: 84.8% | Lung conc i.t./i.v. Ratio at time 0.1 h ([4]; 0.1 h): 7 | Lung conc i.t./i.v. Ratio at time 1.5 h ([4]; 1.5 h): 12 | Lung conc i.t./i.v. Ratio at time 6 h ([4]; 6 h): 2 | Lung conc i.t./i.v. Ratio at time 24 h ([4]; 24 h): 7 | BAL % administered dose at time 0.1 h [4, 5]: 13.6% | lung/plasma conc ratio at time 0.1 h [4, 5]: 371 | concentration at 0.1 h [4, 5]: 5506 nM | BAL % administered dose at time 1.5 h [4, 6]: 0.9% | lung/plasma conc ratio at time 1.5 h [4, 6]: >2285 | concentration at 1.5 h [4, 6]: 4022 nM | BAL % administered dose at time 6 h [4, 7]: 0.2% | lung/plasma conc ratio at time 6 h [4, 7]: >606 | concentration at 6 h [4, 7]: 1067 nM | BAL % administered dose at time 24 h [4, 8]: 0.2% | lung/plasma conc ratio at time 24 h [4, 8]: >951 | concentration at 24 h [4, 8]: 1674 nM | BAL % administered dose at time 0.1 h [4, 9]: BQL | lung/plasma ratio at time 0.1 h [4, 9]: 127 | concentration at 0.1 h [4, 9]: 765 nM | BAL % administered dose at time 1.5 h [4, 10]: BQL | lung/plasma ratio at time 1.5 h [4, 10]: >188 | concentration at 1.5 h [4, 10]: 330 nM | BAL % administered dose at time 6 h [4, 11]: BQL | lung/plasma ratio at time 6 h [4, 11]: >284 | concentration at 6 h [4, 11]: 499 nM | BAL % administered dose at time 24 h [4, 12]: BQL | lung/plasma ratio at time 24 h [4, 12]: >140 | concentration at 24 h [4, 12]: 247 nM | IC50 [2]: 15 nM | recovery at 5 hr, 10 μM [3]: 58.7% | Papp at 5 hr, 10 μM [3]: 0.00254 ×10⁻⁶ cm/s

COC(=O)c1cc2c(cc1C)/C(=C(/Nc1ccc(C(=O)NCC(=O)N3CCN(C)CC3)cc1)c1ccccc1)C(=O)N2 [Example 8, (Z)-Methyl 5-methyl-3-(((4-((2-(4-methylpiperazin-1-yl)-2-oxoethyl)carbamoyl)phenyl)amino) (phenyl)methylene)-2-oxoindoline-6-carboxylate, 0.5 formate]
Cell viability at 100 nM (%) [1]: 110.4% | Cell viability at 300 nM (%) [1]: 108.2% | Cell viability at 1000 nM (%) [1]: 77.7% | IC50 [2]: 12 nM | recovery at 5 hr, 10 μM [3]: 87.8% | Papp at 5 hr, 10 μM [3]: 0.156 ×10⁻⁶ cm/s

COC(=O)c1cc2c(cc1C)/C(=C(/Nc1ccc(C(=O)NCCN3CCC(O)CC3)cc1)c1ccccc1)C(=O)N2 [Example 12, (Z)-Methyl 3-(((4-((2-(4-hydroxypiperidin-1-yl)ethyl)carbamoyl)phenyl)amino)(phenyl)methylene)-5-methyl-2-oxoindoline-6-carboxylate, 0.8 formate]
Cell viability at 100 nM (%) [1]: 92.2% | Cell viability at 300 nM (%) [1]: 105.5% | Cell viability at 1000 nM (%) [1]: 93.4% | IC50 [2]: 4.23 nM | recovery at 5 hr, 10 μM [3]: 87.7% | Papp at 5 hr, 10 μM [3]: 0.00638 ×10⁻⁶ cm/s

COC(=O)c1cc2c(cc1C)/C(=C(/Nc1ccc(C(=O)NCC3CCN(CCO)CC3)cc1)c1ccccc1)C(=O)N2 [Example 14, (Z)-Methyl 3-(((4-(((1-(2-hydroxyethyl)piperidin-4-yl)methyl)carbamoyl)phenyl)amino) (phenyl)methylene)-5-methyl-2-oxoindoline-6-carboxylate]
Cell viability at 100 nM (%) [1]: 116.2% | Cell viability at 300 nM (%) [1]: 107.9% | Cell viability at 1000 nM (%) [1]: 61%

COC(=O)c1cc2c(cc1C)/C(=C(/Nc1ccc(C(=O)N3CCN(CC(=O)NCCO)CC3)cc1)c1ccccc1)C(=O)N2 [Example 15, (Z)-Methyl 3-(((4-(4-(2-((2-hydroxyethyl)amino)-2-oxoethyl)piperazine-1-carbonyl)phenyl)amino) (phenyl)methylene)-5-methyl-2-oxoindoline-6-carboxylate]
Cell viability at 100 nM (%) [1]: 91.3% | Cell viability at 300 nM (%) [1]: 109.9% | Cell viability at 1000 nM (%) [1]: 85.6%

COC(=O)c1cc2c(cc1C)/C(=C(/Nc1ccc(C(=O)NC3CCN(CCO)CC3)cc1)c1ccccc1)C(=O)N2 [Example 49, (Z)-Methyl 3-(((4-((1-(2-hydroxyethyl)piperidin-4-yl)carbamoyl)phenyl)amino)(phenyl)methylene)-5-methyl-2-oxoindoline-6-carboxylate]
IC50 [2]: 1.25 nM

COC(=O)c1cc2c(cc1C)/C(=C(/Nc1ccc(C(=O)NCC3CCN(CCO)CC3)cc1)c1ccccc1)C(=O)N2 [Example 50, (Z)-Methyl 3-(((4-(((1-(2-hydroxyethyl)piperidin-4-yl)methyl)carbamoyl)phenyl)amino)(phenyl)methylene)-5-methyl-2-oxoindoline-6-carboxylate]
Cell viability at 100 nM (%) [1]: 116.2% | Cell viability at 300 nM (%) [1]: 107.9% | Cell viability at 1000 nM (%) [1]: 61.0%

COC(=O)c1cc2c(cc1C)/C(=C(/Nc1ccc(C(=O)NCCN(C)CCO)cc1)c1ccccc1)C(=O)N2 [Example 51, (Z)-Methyl 3-(((4-((2-((2-hydroxyethyl)(methyl)amino)ethyl)carbamoyl)phenyl)amino)(phenyl)methylene)-5-methyl-2-oxoindoline-6-carboxylate]
Cell viability at 100 nM (%) [1]: 113% | Cell viability at 300 nM (%) [1]: 95.5% | Cell viability at 1000 nM (%) [1]: 83.8% | IC50 [2]: 6.71 nM

COC(=O)c1cc2c(cc1C)/C(=C(/Nc1ccc(C(=O)NCCN3CCS(=O)(=O)CC3)cc1)c1ccccc1)C(=O)N2 [Example 52, (Z)-Methyl 3-(((4-((2-(1,1-dioxidothiomorpholino)ethyl)carbamoyl)phenyl)amino)(phenyl)methylene)-5-methyl-2-oxoindoline-6-carboxylate]
Cell viability at 100 nM (%) [1]: 81.3% | Cell viability at 300 nM (%) [1]: 81.2% | Cell viability at 1000 nM (%) [1]: 85.9% | IC50 [2]: 5.49 nM

COC(=O)c1cc2c(cc1C)/C(=C(/Nc1ccc(C(=O)NCCN3CCNC(=O)CC3)cc1)c1ccccc1)C(=O)N2 [Example 53, (Z)-Methyl 5-methyl-2-oxo-3-(((4-((2-(5-oxo-1,4-diazepan-1-yl)ethyl)carbamoyl)phenyl)amino)(phenyl)methylene)indoline-6-carboxylate]
Cell viability at 100 nM (%) [1]: 89.1% | Cell viability at 300 nM (%) [1]: 92.9% | Cell viability at 1000 nM (%) [1]: 95.3% | IC50 [2]: 6.5 nM

COC(=O)c1ccc2c(c1)NC(=O)/C2=C(\Nc1ccc(N(C)C(=O)CN2CCN(C)CC2)cc1)c1ccccc1 [Nintedanib, reference compound]
Cell viability at 100 nM (%) [1]: 104.6% | Cell viability at 300 nM (%) [1]: 105.6% | Cell viability at 1000 nM (%) [1]: 92.7% | concentration at 0.1 h ([4]; male, CD, lung, iv): 2300 nM | concentration at 1.5 h ([4]; male, CD, lung, iv): 1390 nM | concentration at 24 h ([4]; male, CD, lung, iv): 66 nM | concentration at 0.1 h [4, 13]: 12400 nM | concentration at 1.5 h [4, 13]: 7700 nM | concentration at 24 h [4, 13]: 152 nM | MRT ([4]; male, CD, plasma, iv): 3.8 h | clearance ([4]; male, CD, plasma, iv): 124 mL/min/kg | half-life ([4]; male, CD, plasma, iv): 3.9 h | Vd ([4]; male, CD, plasma, iv, read-out: Vss): 28 L/kg | i.t. BAV (%) ([4]; i.t. dose 0.1 (nintedanib 0.42)): 43% | BAL % administered dose at time 0.1 h [4, 5]: 2% | BAL % administered dose at time 1.5 h [4, 6]: 1% | BAL % administered dose at time 24 h [4, 8]: 0.1% | BAL % administered dose at time 0.1 h [4, 9]: 0.06% | BAL % administered dose at time 1.5 h [4, 10]: 0.03% | BAL % administered dose at time 24 h [4, 12]: BQL | % Recovery [3]: 64.0% | recovery at 5 hr, 10 μM [3]: 83.5%
